Assay results published in PMC7284125, “Identification of annotated bioactive molecules that impair motility of the blood fluke Schistosoma mansoni” (International Journal for Parasitology: Drugs and Drug …, 2020).

These molecules were tested on S. mansoni schistosomulae (assay: Phenotypic primary screen assay on schistosomulae (phenotype; viability by methylene blue dye exclusion)). Settings: three-day-old schistosomulae, 10 μM, 24 h; estimated 5 days post compound exposure.
Format: cell-based, Schistosoma mansoni
How it was run: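 Parasites lacking contraction/relaxation cycles and showing dark internal granulations counted as dead. Movement and body shape were compared with DMSO-treated controls under a stereo microscope at 24 h and at five days of exposure. Larvae came from infected snails shed under light for 2 h at 32 °C.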

SMILES	Phenotype
COc1cc(N2CCN(C)CC2)ccc1Nc1nccc(-c2cn(C)c3cnccc23)n1 [AZ191]	granulated, blebbing
CNCc1ccc(C)c(NC(=O)c2ccc(Nc3nc(-c4ccccc4)c4ccccc4n3)cc2)c1 [BMS-833923]	big, granulated
COc1ccc2cc1Oc1ccc(cc1)C[C@H]1c3cc(c(OC)cc3CCN1C)Oc1c(OC)c(OC)cc3c1[C@H](C2)N(C)CC3 [Tetrandrine]	big, granulated
C[C@@H](NCCCc1cccc(C(F)(F)F)c1)c1cccc2ccccc12 [AMG-073]	big, granulated, blebbing
CN(C)CCC=C1c2ccccc2CCc2ccccc21 [Amitriptyline]	elongated, granulated, blebbing
CNCc1ccc(-c2cc(-c3nc(-c4ccc(S(=O)(=O)C(C)C)cc4)cnc3N)on2)cc1 [VE-822]	dark, granulated

Each molecule was assayed on S. mansoni adult worms (assay: Motility assay on adult parasites (pixel displacement, relative to DMSO control)). Settings: adults, 10 μM, long-term after washout.
Format: cell-based, Schistosoma mansoni
How it was run: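 Unpaired adult worms from mice 6 weeks post-infection kept in OPTI-MEM with 5% dialyzed FBS and exposed to compounds at 1 and 10 μM for 24 h. Motility filmed 1 min at 10 frames/s, quantified by pixel displacement versus DMSO-treated worms; recovery followed up to five days after washout.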

SMILES	motility phenotype in words
COc1ccc2cc1Oc1ccc(cc1)C[C@H]1c3cc(c(OC)cc3CCN1C)Oc1c(OC)c(OC)cc3c1[C@H](C2)N(C)CC3 [Tetrandrine]	strongly impaired movement
CNCc1ccc(-c2cc(-c3nc(-c4ccc(S(=O)(=O)C(C)C)cc4)cnc3N)on2)cc1 [VE-822]	Significant hypomotility

Same assay, conditions: secondary screen, 10 μM, D1, Female adult worms

SMILES	Fractional motility
COc1cc(N2CCN(C)CC2)ccc1Nc1nccc(-c2cn(C)c3cnccc23)n1 [AZ191]	-0.48
CNCc1ccc(C)c(NC(=O)c2ccc(Nc3nc(-c4ccccc4)c4ccccc4n3)cc2)c1 [BMS-833923]	-0.84
COc1ccc2cc1Oc1ccc(cc1)C[C@H]1c3cc(c(OC)cc3CCN1C)Oc1c(OC)c(OC)cc3c1[C@H](C2)N(C)CC3 [Tetrandrine]	-0.51
C[C@@H](NCCCc1cccc(C(F)(F)F)c1)c1cccc2ccccc12 [AMG-073]	0.11
CN(C)CCC=C1c2ccccc2CCc2ccccc21 [Amitriptyline]	0.24
CNCc1ccc(-c2cc(-c3nc(-c4ccc(S(=O)(=O)C(C)C)cc4)cnc3N)on2)cc1 [VE-822]	-0.46

Same assay, conditions: secondary screen, 10 μM, D1, Male adult worms

SMILES	Fractional motility
COc1cc(N2CCN(C)CC2)ccc1Nc1nccc(-c2cn(C)c3cnccc23)n1 [AZ191]	0.25
CNCc1ccc(C)c(NC(=O)c2ccc(Nc3nc(-c4ccccc4)c4ccccc4n3)cc2)c1 [BMS-833923]	-0.59
COc1ccc2cc1Oc1ccc(cc1)C[C@H]1c3cc(c(OC)cc3CCN1C)Oc1c(OC)c(OC)cc3c1[C@H](C2)N(C)CC3 [Tetrandrine]	-0.37
C[C@@H](NCCCc1cccc(C(F)(F)F)c1)c1cccc2ccccc12 [AMG-073]	-0.24
CN(C)CCC=C1c2ccccc2CCc2ccccc21 [Amitriptyline]	1.53
CNCc1ccc(-c2cc(-c3nc(-c4ccc(S(=O)(=O)C(C)C)cc4)cnc3N)on2)cc1 [VE-822]	-0.30

Same assay, conditions: secondary screen, 10 μM, D5, Female adult worms

SMILES	Fractional motility
COc1cc(N2CCN(C)CC2)ccc1Nc1nccc(-c2cn(C)c3cnccc23)n1 [AZ191]	-0.27
CNCc1ccc(C)c(NC(=O)c2ccc(Nc3nc(-c4ccccc4)c4ccccc4n3)cc2)c1 [BMS-833923]	-0.64
COc1ccc2cc1Oc1ccc(cc1)C[C@H]1c3cc(c(OC)cc3CCN1C)Oc1c(OC)c(OC)cc3c1[C@H](C2)N(C)CC3 [Tetrandrine]	-0.97
C[C@@H](NCCCc1cccc(C(F)(F)F)c1)c1cccc2ccccc12 [AMG-073]	-0.43
CN(C)CCC=C1c2ccccc2CCc2ccccc21 [Amitriptyline]	0.30
CNCc1ccc(-c2cc(-c3nc(-c4ccc(S(=O)(=O)C(C)C)cc4)cnc3N)on2)cc1 [VE-822]	-0.67

Same assay, conditions: secondary screen, 10 μM, D5, Male adult worms

SMILES	Fractional motility
COc1cc(N2CCN(C)CC2)ccc1Nc1nccc(-c2cn(C)c3cnccc23)n1 [AZ191]	2.64
CNCc1ccc(C)c(NC(=O)c2ccc(Nc3nc(-c4ccccc4)c4ccccc4n3)cc2)c1 [BMS-833923]	0.14
COc1ccc2cc1Oc1ccc(cc1)C[C@H]1c3cc(c(OC)cc3CCN1C)Oc1c(OC)c(OC)cc3c1[C@H](C2)N(C)CC3 [Tetrandrine]	-0.61
C[C@@H](NCCCc1cccc(C(F)(F)F)c1)c1cccc2ccccc12 [AMG-073]	-0.27
CN(C)CCC=C1c2ccccc2CCc2ccccc21 [Amitriptyline]	0.03
CNCc1ccc(-c2cc(-c3nc(-c4ccc(S(=O)(=O)C(C)C)cc4)cnc3N)on2)cc1 [VE-822]	-0.66

These molecules were tested on S. mansoni schistosomulae (assay: Motility assay on schistosomulae (pixel displacement, relative to DMSO control)). Settings: Schistosoma mansoni, 120 h; schistosomulae, secondary screen, 24h exposure, read at D5, 1 µM; read-out: Fractional motility.
Format: cell-based, Schistosoma mansoni
How it was run: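 Motility was scored by pixel displacement from 1-min videos (10 frames/s) and compared with DMSO controls. Schistosomulae (200/well, Opti-MEM, 5% dialyzed FBS, no antibiotics) received compound at 1 or 10 μM for 24 h; selected hits were also followed at 1, 3, 6 and 12 h.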

SMILES	activity at 1 µM
COc1cc(N2CCN(C)CC2)ccc1Nc1nccc(-c2cn(C)c3cnccc23)n1 [AZ191]	49%
CNCc1ccc(C)c(NC(=O)c2ccc(Nc3nc(-c4ccccc4)c4ccccc4n3)cc2)c1 [BMS-833923]	-48%
COc1ccc2cc1Oc1ccc(cc1)C[C@H]1c3cc(c(OC)cc3CCN1C)Oc1c(OC)c(OC)cc3c1[C@H](C2)N(C)CC3 [Tetrandrine]	-31%
C[C@@H](NCCCc1cccc(C(F)(F)F)c1)c1cccc2ccccc12 [AMG-073]	-32%
CN(C)CCC=C1c2ccccc2CCc2ccccc21 [Amitriptyline]	-4%
CNCc1ccc(-c2cc(-c3nc(-c4ccc(S(=O)(=O)C(C)C)cc4)cnc3N)on2)cc1 [VE-822]	-14%

Same assay, conditions: Schistosoma mansoni; schistosomulae, secondary screen, 24h exposure, read at D1, 1 µM; read-out: Fractional motility

SMILES	activity at 1 µM
COc1cc(N2CCN(C)CC2)ccc1Nc1nccc(-c2cn(C)c3cnccc23)n1 [AZ191]	-38%
CNCc1ccc(C)c(NC(=O)c2ccc(Nc3nc(-c4ccccc4)c4ccccc4n3)cc2)c1 [BMS-833923]	10%
COc1ccc2cc1Oc1ccc(cc1)C[C@H]1c3cc(c(OC)cc3CCN1C)Oc1c(OC)c(OC)cc3c1[C@H](C2)N(C)CC3 [Tetrandrine]	-9%
C[C@@H](NCCCc1cccc(C(F)(F)F)c1)c1cccc2ccccc12 [AMG-073]	-28%
CN(C)CCC=C1c2ccccc2CCc2ccccc21 [Amitriptyline]	286%
CNCc1ccc(-c2cc(-c3nc(-c4ccc(S(=O)(=O)C(C)C)cc4)cnc3N)on2)cc1 [VE-822]	-37%

Same assay, conditions: schistosomulae, 1h exposure, read at D1, 10 µM

SMILES	Fractional motility
C[C@@H](NCCCc1cccc(C(F)(F)F)c1)c1cccc2ccccc12 [AMG-073]	7.02
CNCc1ccc(-c2cc(-c3nc(-c4ccc(S(=O)(=O)C(C)C)cc4)cnc3N)on2)cc1 [VE-822]	-0.26

Same assay, conditions: schistosomulae, 1h exposure, read at D5, 10 µM

SMILES	Fractional motility
C[C@@H](NCCCc1cccc(C(F)(F)F)c1)c1cccc2ccccc12 [AMG-073]	0.35
CNCc1ccc(-c2cc(-c3nc(-c4ccc(S(=O)(=O)C(C)C)cc4)cnc3N)on2)cc1 [VE-822]	-0.63

Same assay, conditions: schistosomulae, 3h exposure, read at D1, 10 µM

SMILES	Fractional motility
C[C@@H](NCCCc1cccc(C(F)(F)F)c1)c1cccc2ccccc12 [AMG-073]	12.64
CNCc1ccc(-c2cc(-c3nc(-c4ccc(S(=O)(=O)C(C)C)cc4)cnc3N)on2)cc1 [VE-822]	-0.72

Same assay, conditions: schistosomulae, 3h exposure, read at D5, 10 µM

SMILES	Fractional motility
C[C@@H](NCCCc1cccc(C(F)(F)F)c1)c1cccc2ccccc12 [AMG-073]	0.72
CNCc1ccc(-c2cc(-c3nc(-c4ccc(S(=O)(=O)C(C)C)cc4)cnc3N)on2)cc1 [VE-822]	-0.69

Same assay, conditions: schistosomulae, 6h exposure, read at D1, 10 µM

SMILES	Fractional motility
C[C@@H](NCCCc1cccc(C(F)(F)F)c1)c1cccc2ccccc12 [AMG-073]	6.39
CNCc1ccc(-c2cc(-c3nc(-c4ccc(S(=O)(=O)C(C)C)cc4)cnc3N)on2)cc1 [VE-822]	3.57

Same assay, conditions: schistosomulae, 6h exposure, read at D5, 10 µM

SMILES	Fractional motility
CNCc1ccc(-c2cc(-c3nc(-c4ccc(S(=O)(=O)C(C)C)cc4)cnc3N)on2)cc1 [VE-822]	0.02

Same assay, conditions: schistosomulae, secondary screen, 24h exposure, read at D1, 10 µM

SMILES	Fractional motility
COc1cc(N2CCN(C)CC2)ccc1Nc1nccc(-c2cn(C)c3cnccc23)n1 [AZ191]	-0.69
CNCc1ccc(C)c(NC(=O)c2ccc(Nc3nc(-c4ccccc4)c4ccccc4n3)cc2)c1 [BMS-833923]	10.40
COc1ccc2cc1Oc1ccc(cc1)C[C@H]1c3cc(c(OC)cc3CCN1C)Oc1c(OC)c(OC)cc3c1[C@H](C2)N(C)CC3 [Tetrandrine]	-0.39
C[C@@H](NCCCc1cccc(C(F)(F)F)c1)c1cccc2ccccc12 [AMG-073]	-0.83
CN(C)CCC=C1c2ccccc2CCc2ccccc21 [Amitriptyline]	5.01
CNCc1ccc(-c2cc(-c3nc(-c4ccc(S(=O)(=O)C(C)C)cc4)cnc3N)on2)cc1 [VE-822]	-0.68

Same assay, conditions: schistosomulae, secondary screen, 24h exposure, read at D5, 10 µM

SMILES	Fractional motility
COc1cc(N2CCN(C)CC2)ccc1Nc1nccc(-c2cn(C)c3cnccc23)n1 [AZ191]	-0.09
CNCc1ccc(C)c(NC(=O)c2ccc(Nc3nc(-c4ccccc4)c4ccccc4n3)cc2)c1 [BMS-833923]	-0.90
COc1ccc2cc1Oc1ccc(cc1)C[C@H]1c3cc(c(OC)cc3CCN1C)Oc1c(OC)c(OC)cc3c1[C@H](C2)N(C)CC3 [Tetrandrine]	-0.87
C[C@@H](NCCCc1cccc(C(F)(F)F)c1)c1cccc2ccccc12 [AMG-073]	-1.00
CN(C)CCC=C1c2ccccc2CCc2ccccc21 [Amitriptyline]	0.60
CNCc1ccc(-c2cc(-c3nc(-c4ccc(S(=O)(=O)C(C)C)cc4)cnc3N)on2)cc1 [VE-822]	-0.83

Same assay, conditions: three-day old schistosomulae, incubation 1 h, 3 h, 6 h

SMILES	motility in extended assay with reduced incubation times, in words
C[C@@H](NCCCc1cccc(C(F)(F)F)c1)c1cccc2ccccc12 [AMG-073]	did not exhibit a significant change before the 24 hr incubation cut-off
CNCc1ccc(-c2cc(-c3nc(-c4ccc(S(=O)(=O)C(C)C)cc4)cnc3N)on2)cc1 [VE-822]	did not exhibit a significant change before the 24 hr incubation cut-off

These molecules were tested on S. mansoni schistosomulae (assay: Phenotypic primary screen assay on schistosomulae (phenotype; viability by methylene blue dye exclusion)). Settings: Schistosoma mansoni; three-day-old schistosomulae, 10 μM, 24 h; calculated 5 days post compound exposure; read-out: Viability (%).
Format: cell-based

SMILES	viability at 10 µM
COc1cc(N2CCN(C)CC2)ccc1Nc1nccc(-c2cn(C)c3cnccc23)n1 [AZ191]	89.5%
CNCc1ccc(C)c(NC(=O)c2ccc(Nc3nc(-c4ccccc4)c4ccccc4n3)cc2)c1 [BMS-833923]	32.5%
COc1ccc2cc1Oc1ccc(cc1)C[C@H]1c3cc(c(OC)cc3CCN1C)Oc1c(OC)c(OC)cc3c1[C@H](C2)N(C)CC3 [Tetrandrine]	89%
C[C@@H](NCCCc1cccc(C(F)(F)F)c1)c1cccc2ccccc12 [AMG-073]	55%
CN(C)CCC=C1c2ccccc2CCc2ccccc21 [Amitriptyline]	90%
CNCc1ccc(-c2cc(-c3nc(-c4ccc(S(=O)(=O)C(C)C)cc4)cnc3N)on2)cc1 [VE-822]	11.5%
